Laboratory results as given in US20230372337A1, “Combination Therapy Comprising an AXL Inhibitor” (BERGENBIO ASA, priority 2020, published 2023).

What was measured:
[1] = system: type I IFN related genes (ISG); assay: RT2 Profiler PCR Array Mouse Type I Interferon Response on 4T1 tumors (Example 2); type: in vivo, Balb/c mice
From the text: Bemcentinib was given as a loading dose for 3 days (11-13 after tumor implantation) and then as a standard dose until sacrifice.
9 mice have been excluded of the study because of the absence of tumor on day 11. On day 11 post implantation half of the cages were placed in the bemcentinib treated group and the other half in the […]. The average tumor volume when bemcentinib treatment was initiated (day 11) was 54.99 mm^3. […] The tumor volumes when bemcentinib treatment was initiated and the day of randomization are recorded in table 8. The intra tumomoral injection of doxorubicin and sting agonists was adjusted to the tumor volume.
Doxorubicin is provided in a 2 mg/ml solution. As it is technically challenging to inject 50 ul liquid into tumors measuring <100 mm^3, the total dosing volume was calculated based on the following formula: V=50 ul×(TV/120). This is done to minimize variability due to leakage during intratumoral injection. For the 1 mg/kg dose (E,F) Doxorubicin was given at a concentration of 0.5 mg/ml, which corresponds to 1 mg/kg for a 25 g mouse with a tumor of 120 mm^3, and 1 mg/kg for a 20 g mouse with a tumor of 100 mm^3. For 3 mg/kg dose (G,H), a solution of 1.5 mg/ml was used and same volumes was injected. For the 6 mg/kg dose (I,J) the commercial solution of 2 mg/ml will be used and 75 ul was injected for tumor with a volume of 120 mm^3.
The same formula as for doxorubicin was used V=50 ul×(TV/120).
(§1) RNA was extracted from […] snap frozen tumors using the RNEasy Microarray Tissue Mini kit from Qiagen following the manufacturer's instructions. As tumors contained Doxorubicin and powderizing them could expose personnel to harmful substances, the RNA was extracted in a closed system using the GentleMACS dissociator and M Tubes. Purity and concentration of RNA was measured using Nanodrop. cDNA was synthesized from RNA using the RT^2 First Strand kit (Qiagen) according to the manufacturer's instructions. cDNA was mixed with RT^2 SYBR Green Mastermix (Qiagen) and loaded into RT Profiler™ PCR Array Mouse Type I Interferon Response or RT^2 Profiler™ PCR Array Mouse Epithelial to Mesenchymal Transition (EMT), analyzing the expression of 84 genes listed in Tables 9 and 10. The plates were analyzed using Light Cycler 480 (Roche) and data were analyzed using the Qiagen Data Analysis Centre and Graph Pad (Prism).
(§2) Quiagen RT^2 software was used to analyze all the samples from different groups. To be able to generate heatmaps and graph on fold change including error bars, the data have been analyzed manually with Graph Pad (Prism) when the Quiagen RT^2 software gave significant results between the different groups. For IFN type 1 response 1 mg/kg 48, 72 h and 3 mg/kg 48 h, were analyzed manually. For EMT, 1 mg/kg 48, 72 h, 3 mg/kg 72 h. When the data have been analyzed manually, the results are presented as histograms of mRNA fold changes. For the time points and doses analyzed by the software, the results are presented as tables.
GraphPadPrism was used to generate the heat maps, graphs with mRNA fold change, and to make the statistics. Multiple TTests, paired were performed on ΔΔ Ct values.
The expression of type I IFN related genes (ISG) was assessed in tumors collected 24, 48 and 72 hours after i.t. doxorubicin treatment. 3 groups were compared per timepoint: bemcentinib (bern), doxorubicin only (dox) and doxorubicin combined with bemcentinib (doxbern), the fold changes were compared with the control groups injected with PBS, and the fold change was 1 for the control groups.

[2] = system: Yumm1.7 cells; assay: qRTPCR of IFN related genes in Yumm1.7 cells in vitro (Example 4); type: cell-based, mouse
[3] = system: IFN related genes (ISG); assay: qRTPCR of IFN related genes in Yumm1.7 tumors after sacrifice (Example 3); type: in vivo, C57Bl6 mice; settings: 35 IFN related genes tested
Procedure: RNA was extracted from snap frozen tumors using the RNEasy Microarray Tissue Mini kit from Qiagen following the manufacturer's instructions. As tumors contained Doxorubicin and powderizing them could expose personnel to harmful substances, the RNA was extracted in a closed system using the GentleMACS dissociator and M Tubes. Purity and concentration of RNA was measured using Nanodrop. cDNA was synthesized from RNA using the RT^2 First Strand kit (Qiagen) according to the manufacturer's instructions. cDNA was mixed with SYBR Green Mastermix (Qiagen) and loaded into PCR plates with different probes against interferon related genes (listed in table 14). The plates were analyzed using Light Cycler 480 (Roche) and data were analyzed using Graph Pad (Prism).
Tumors from 4 animals treated either with Vehicle (group A), bemcentinib (Group B), Doxorubicin (group F) or bemcentinib+Doxorubicin (group H) were analyzed. Data are presented as fold changes compared to Vehicle treated mice. 35 IFN related genes (Table 14) were tested by RT PCR. Fold change was obtained compared to the control group (A). […]
A molecular mechanism focused study will be performed later; here samples were collected after sacrifice, meaning many days after treatment for some of the groups. The expression of 35 ISG as well, immune checkpoint related genes EMT related genes, Axl and Gas6 were analyzed by qRTPCR (Table 14).

[4] = system: global gene expression; assay: RNA sequencing of 4T1 tumors 72 hours after doxorubicin i.t. (Example 2); type: in vivo, Balb/c mice
Procedure: FASTQ files were generated and quality controlled by the Genomic Core Facility. The trimmed samples were aligned to the reference genome using STAR. Gene expression quantification was achieved using feature Counts. Following QC, 8 and 7 samples from in vitro and in vivo studies respectively were identified as outliers and were excluded from subsequent analysis. RUVseq was used to remove hidden batch effect and/or other unwanted variations.
Read counts were analyzed for differential expression using the R package DESeq2. DESeq2 uses the raw read counts, applies an internal normalization method, and does estimation of library size, estimation of dispersion, and negative binomial generalized linear model fitting. The resulting differentially expressed gene lists (adjusted p-value cutoff=0.05) were then analyzed using Metascape to find the enriched terms.
RNA sequence analysis (RNAseq) was performed on tumor samples from mice sacrificed 72 hours after doxorubicin i.t. treatment (corresponding to group E and F at the 72 hr timepoint in Example 1).

[5] = system: EMT related genes; assay: RT2 Profiler PCR Array Mouse Epithelial to Mesenchymal Transition (EMT) on 4T1 tumors (Example 2); type: in vivo, Balb/c mice; settings: for Downregulated EMT genes (number): doxorubicin 1 mg/kg i.t., 72 hr timepoint; for EMT related genes significantly downregulated (number): doxorubicin 3 mg/kg i.t., 72 hours
Procedure: as §1, §2
EMT related gene expression in tumors was assessed by the RT^2 Profiler™ PCR Array for the 1 and 3 mg/kg doses at 48 and 72 hr timepoints. The highest dose and 24 hr timepoint samples were excluded based on the results outlined above.

[6] = 24 hours after DMXAA i.t. treatment
[7] = doxorubicin 1 mg/kg i.t., 24 hours after injection, 84 genes
[8] = Yumm1.7 cells, doxorubicin 24 hours

SMILES | ISG significantly upregulated compared to control (number) [1, 7] | ISG significantly upregulated compared to control (number) ([1]; doxorubicin 1 mg/kg i.t., 48 h) | ISG significantly upregulated compared to control (number) ([1]; doxorubicin 3 mg/kg i.t., 48 h) | ISG significantly upregulated compared to control (number) [3] | GO terms significantly upregulated compared to control (number) [4] | Interferon response (gene ontology) compared to control [4] | Downregulated EMT genes (number) [5] | EMT related genes significantly downregulated (number) [5] | further results
Nc1nc(Nc2ccc3c(c2)CC[C@@H](N2CCCC2)CC3)nn1-c1cc2c(nn1)-c1ccccc1CCC2 [Bemcentinib, bemcentinib] | no ISG | none | No | 4 | 2 | downregulated | one | none | Fold change of upregulated ISG [1, 6]: around 2 fold; ISG significantly upregulated compared to control (number) [1, 6]: 3; Effect on the IFNB mediated response ([2]; Yumm1.7 cells treated with IFNB): appeared to increase the IFNB mediated response, although not reaching significance; GO terms significantly downregulated compared to control (number) [4]: 20
COc1cccc2c1C(=O)c1c(O)c3c(c(O)c1C2=O)C[C@@](O)(C(=O)CO)C[C@@H]3O[C@H]1C[C@H](N)[C@H](O)[C@H](C)O1 [Doxorubicin, doxorubicin] | no ISG | one | No | No gene | 1 | No Interferon response | one | none | Fold change of one upregulated ISG ([1]; doxorubicin 1 mg/kg i.t., 48 h): 3 fold; ISG significantly upregulated compared to control (number) ([1]; doxorubicin 3 mg/kg i.t., 24 h): one; ISG significantly upregulated compared to control (number) ([1]; doxorubicin 6 mg/kg i.t., 24 hours): 1; ISG significantly upregulated compared to control (number) ([1]; doxorubicin 6 mg/kg i.t., 48 hours): 8; ISG significantly upregulated compared to control (number) ([1]; doxorubicin 6 mg/kg i.t., 72 hours): 6; IFIT1 mRNA fold change [2, 8]: 20 fold; OAS2 mRNA fold change [2, 8]: 50 fold; RSAD2 mRNA fold change [2, 8]: 20 fold; ISG significantly upregulated compared to control (number) ([2]; Yumm1.7 cells, doxorubicin 24 hours, 21 ISG tested): 9; Interferon and immune response (gene ontology) compared to bern only group [4]: upregulated
